Measurements published in ChEMBL document CHEMBL1149011, “Pulcherralpin, a new diterpene ester from Caesalpinia pulcherrima” (J Nat Prod, 1986).
Active and inactive are the calls of the source. The rule behind the calls is not given here.

Experiments:
KB = assay: Cytotoxicity against human KB cells; assay type: functional, cell-based
P388 = assay: Cytotoxicity against mouse P388 cells; assay type: functional, cell-based

With `COC(=O)C[C@@H]1C(=O)C[C@H]2[C@H]([C@H]1C)[C@@H](O)[C@@H](OC(=O)/C=C/c1ccccc1)[C@@]1(O)C(C)(C)CCC[C@]21C` the Activity (KB) was “inactive” and the Activity (P388) was “inactive”.
